SMILES strings stand for the structures.

This is an account of results in US11020358B2, “Method for the anti-senescence of and/or rejuvenating stem cells” (GWO XI STEM CELL APPLIED TECHNOLOGY CO., LTD., priority 2014, dated 2021).

One experiment relates to ADSCs. The experiment can be described thus: Analysis of proliferation rate (Ki67 staining). The class given is cell-based, human. The method, then: Four portions of equal volume of the above culture medium containing the sub-cultured ADSCs were separately handled by adding thereinto H2O2 (purchased from Sigma-Aldrich) at a final concentration of 100 μM and reacting for 2 hours to induce senescence of the ADSCs, replacing the culture medium with a fresh culture medium, adding thereinto TC (trans-cinnamaldehyde, purchased from Sigma-Aldrich) at a final concentration of 0, 2, 4 or 6 μM and reacting for 6 hours, so as to obtain “H2O2 group (i.e., treated with H2O2 for 2 hours, but not treated with TC),” “H2O2+TC2 group (i.e., treated with H2O2 for 2 hours and then treated with 2 μM of TC for 6 hours),” “H2O2+TC4 group (i.e., treated with H2O2 for 2 hours and then treated with 4 μM of TC for 6 hours),” and “H2O2+TC6 group (i.e., treated with H2O2 for 2 hours and then treated with 6 μM of TC for 6 hours)” ADSCs. Samples of the “untreated group,” “H2O2 group,” and “H2O2+TC6 group” ADSCs obtained from Example 1 (1) were washed with phosphate buffered saline (PBS) twice, fixed with 3.7% formaldehyde, and blocked with 10% FBS (diluted in PBS). Then, the cells of each sample were washed with PBS once, and reacted with a Ki67 antibody (purchased from Novus biological) at 4° C. overnight. […]

The test system of the next experiment is hBMMSCs. The experiment can be described thus: SA-β-gal activity assay in hBMMSCs. The class given is cell-based, human. The method, then:
Three portions of equal volume of the above culture medium containing the sub-cultured hBMMSCs were provided. The first and second portions were handled by adding thereinto H2O2 at a final concentration of 100 μM, reacting for 2 hours to induce senescence of the hBMMSCs, replacing the culture medium with a fresh culture medium, adding thereinto TC at final concentrations of 0 and 6 μM respectively, and reacting for 6 hours to obtain “H2O2 group (i.e., treated with H2O2 for 2 hours, but not treated with TC)” and “H2O2+TC6 group (i.e., treated with H2O2 for 2 hours and then treated with 6 μM of TC for 6 hours) hBMMSCs. The third portion without any treatment was referred to as “untreated group” hBMMSCs.
(§1) The ADSCs in each sample of the group obtained from Example 1 (1) were washed with PBS twice, fixed with 3% formaldehyde and washed with PBS once. […]
(§2) The staining solution was removed. […] The cells were observed and photographed under a microscope with 10-fold magnification, and the percentage of SA-β-gal activity-positive cells was calculated. […]

In another experiment the test system is WJSCs. Nature of the experiment: SA-β-gal activity assay in WJSCs. The class given is cell-based. As for the experimental part: Three portions of equal volume of the above culture medium containing the sub-cultured WJSCs were provided. The first and second portions were handled by adding thereinto H2O2 at a final concentration of 100 μM, reacting for 2 hours to induce senescence of the WJSCs, replacing the culture medium with a fresh culture medium, adding thereinto TC at final concentrations of 0 and 6 μM, respectively, and reacting for 6 hours to obtain “H2O2 group (i.e., treated with H2O2 for 2 hours, but not treated with TC)” and “H2O2+TC6 group (i.e., treated with H2O2 for 2 hours and then treated with 6 μM of TC for 6 hours) WJSCs. The third portion without any treatment was referred to as “untreated group” WJSCs.
as §1, §2

The test system of a further experiment is SIRT1 gene. Nature of the experiment: Quantitative RT-PCR of SIRT1 gene in WJSCs. The class given is cell-based. As for the experimental part:
Three portions of equal volume of the above culture medium containing the sub-cultured WJSCs were provided. The first and second portions were handled by adding thereinto H2O2 at a final concentration of 100 μM, reacting for 2 hours to induce senescence of the WJSCs, replacing the culture medium with a fresh culture medium, adding thereinto TC at final concentrations of 0 and 6 μM, respectively, and reacting for 6 hours to obtain “H2O2 group (i.e., treated with H2O2 for 2 hours, but not treated with TC)” and “H2O2+TC6 group (i.e., treated with H2O2 for 2 hours and then treated with 6 μM of TC for 6 hours) WJSCs. The third portion without any treatment was referred to as “untreated group” WJSCs. […]
Each of the cDNA of ADSCs of different groups from Experiment (3-1) was handled as follows. […] The mixture was then placed in a real-time quantitative PCR machine (ABI prism 7700 sequence detection system) to perform a reaction for quantifying the gene expression levels. […]
The steps as shown in Experiment (3-2) were repeated, but the cDNA was substituted with the cDNA of the BMMSCs or WJSCs from Experiment (3-1) to conduct quantitative RT-PCR.

[1] abbreviates: H2O2 group (100 μM 2 h) compared to untreated group.
The mark [2] stands for this setting: H2O2+TC6 group (6 μM TC 6 h after H2O2) compared to H2O2 group.

As to `OO` [H2O2, reference compound], in the experiment on ADSCs (H2O2 group ADSCs (100 μM 2 h), compared to untreated group), the “number of the Ki67-positive cells” value is “significantly reduced”. Also, the “number of the SA-β-gal activity-positive hBMMSCs” value with hBMMSCs (setting [1]) was “significantly increased”. Also, the “number of the SA-β-gal activity-positive WJSCs” value in the experiment on WJSCs (setting [1]) was “significantly increased”. Besides, the “expression level of SIRT1 gene in WJSCs” value in the experiment on SIRT1 gene (H2O2 group compared to untreated group) is “significantly reduced”.

Consider `O=C/C=C/c1ccccc1` [TC, trans-cinnamaldehyde], for which the “number of the Ki67-positive cells” value in the experiment on ADSCs (H2O2+TC6 group ADSCs (6 μM TC 6 h after H2O2)) was “increased to be similar to that in “untreated group””. For the same molecule, the “number of the SA-β-gal activity-positive hBMMSCs” value in the experiment with hBMMSCs (setting [2]) is reported as “significantly reduced”. For the same molecule, the “number of the SA-β-gal activity-positive WJSCs” value in the experiment on WJSCs (setting [2]) is given as “significantly reduced”. Also, in the experiment with SIRT1 gene (H2O2+TC6 group compared to H2O2 group), the “expression level of SIRT1 gene in WJSCs” value is on record as “significantly increased”.
